The structures appear in SMILES notation.

Assay [1] concerns TFF1 gene expression in MCF-7 cells. In words: TFF1 expression by quantitative RT-PCR in MCF-7 cells transfected with TOX3 or vector control. As to conditions: for Effect on TFF1 expression compared to untreated control cells: MCF7 cells, normal culture conditions (not estrogen depleted); for TOX3 induction of TFF1 expression: resistant or sensitive to the drug: TOX3 transfected MCF7 cells, estrogen depleted medium, 36 hours.
Experimental: Measurement of TFF1 induction by TOX3. […] MCF7 cells were transfected with a TOX3 expression vector or vector control, switched to estrogen depleted-medium after 8 hours in the presence or absence of the indicated drug, and analyzed by quantitative RT-PCR for TFF1 gene expression after an additional 36 hours in culture.

In assay [2] the test system is ERα binding to ERE I, ERE II, and ERE III. As to conditions: reported ER ChIP studies (ref. 46); cited from earlier work.

On to `C[C@]12CC[C@@H]3c4ccc(O)cc4C[C@@H](CCCCCCCCC[S+]([O-])CCCC(F)(F)C(F)(F)F)[C@H]3[C@@H]1CC[C@@H]2O` (stereo partly drawn) [fulvestrant], for which, in assay [1], the “Effect on TFF1 expression compared to untreated control cells” value is recorded as “decrease” and the “TOX3 induction of TFF1 expression: resistant or sensitive to the drug” value is recorded as “sensitive”. For the same compound, in assay [2], the “ER binding at ERE I, II, and III sites upstream of TFF1 and TMPRSS3” value was “residual binding”.

In the case of `CC/C(=C(\c1ccccc1)c1ccc(OCCN(C)C)cc1)c1ccccc1` [tamoxifen], in assay [1], the “Effect on TFF1 expression compared to untreated control cells” value is given as “decrease” and the “TOX3 induction of TFF1 expression: resistant or sensitive to the drug” value is on record as “resistant”. Further, in assay [2], the “ER binding at ERE I, II, and III sites upstream of TFF1 and TMPRSS3” value is given as “residual binding”.

These data come from patent US20130225430A1, “METHODS AND COMPOSITIONS FOR TREATMENT OF TOX-3 AND TFF-1 MEDIATED CANCER PATHOGENESIS” (CEDARS-SINAI MEDICAL CENTER, priority 2012, published 2013).
